Test results from ChEMBL document CHEMBL1932956, “Combination of two chromophores: synthesis and PDT application of porphyrin-pentamethinium conjugate” (Bioorg Med Chem Lett, 2012).
Activity calls are given as the source filed them. The calls are words filed in the database; no cut-off is given here.

Experiments:
UB900518 = assay: Antitumor activity against human UB900518 cells xenografted in mouse assessed as tumor regression at 5 mg/kg followed by photo irradiation measured after 72 hrs; type: functional, organism-based; set-up: dose 5 mg/kg
HL-60 [1] = assay: Induction of apoptosis in human HL60 cells assessed as DNA fragmentation measured after 6 hrs following photo irradiation by trypan blue assay; type: functional, cell-based
HL-60 [2] = assay: Induction of apoptosis in human HL60 cells assessed as cell death measured after 24 hrs following photo irradiation by trypan blue assay; type: functional, cell-based
HL-60 [3] = assay: Cytotoxicity against human HL60 cells assessed as cell viability; type: functional, cell-based

## CN(C)/C=C/C(=C\C=[N+](C)C)c1c2nc(c(C(/C=C/N(C)C)=C/C=[N+](C)C)c3ccc([nH]3)c(C(/C=C/N(C)C)=C/C=[N+](C)C)c3nc(c(C(/C=C/N(C)C)=C/C=[N+](C)C)c4ccc1[nH]4)C=C3)C=C2
UB900518
  Activity: Active
HL-60 [1]
  Activity: Active
HL-60 [2]
  Activity: Active
HL-60 [3]
  IC50: 3 µM

## O=[N+]([O-])c1ccc(-[n+]2ccc(-c3c4nc(c(-c5cc[n+](-c6ccc([N+](=O)[O-])cc6[N+](=O)[O-])cc5)c5ccc([nH]5)c(-c5cc[n+](-c6ccc([N+](=O)[O-])cc6[N+](=O)[O-])cc5)c5nc(c(-c6cc[n+](-c7ccc([N+](=O)[O-])cc7[N+](=O)[O-])cc6)c6ccc3[nH]6)C=C5)C=C4)cc2)c([N+](=O)[O-])c1
HL-60 [1]
  Activity: Active
HL-60 [2]
  Activity: Active
HL-60 [3]
  IC50: 3.4 µM
